17 compounds from ChEMBL document CHEMBL1777804, “Part 3: Design and synthesis of proline-derived α2δ ligands” (Bioorg Med Chem Lett, 2011) can be followed below.

Some results are limits rather than exact numbers.

A short description of series [1]: Displacement of [3H]gabapentin from Voltage-dependent calcium channel subunit alpha-2/delta in pig cerebral cortex. The class given is tissue-based, Sus scrofa. On the technique in general: Displacement assays read how much labelled ligand stays bound in the presence of the test substance.
Series [2] is described as follows: Inhibition of Voltage-dependent calcium channel subunit alpha-2/delta.
Series [3] can be described thus: Plasma protein binding in rat. The class given is ADME, cell-free. As to conditions: read-out: PPB (converted).
The nature of series [4]: Dissociation constant, pKa of the compound. The class given is physicochemical.
Series [5] is described as follows: Half life in rat. As to conditions: in vivo. The class given is ADME, organism-based.
Series [6] can be described thus: Oral bioavailability in rat. The conditions noted are these: in vivo. The class given is ADME, organism-based.
The species named for the next series is Rattus norvegicus. Nature of the series: Unbound clearance in rat urine. The class given is ADME, organism-based. The conditions noted are these: in vivo.
Series [7] is described as follows: Lipophilicity, log D of the compound. The conditions noted are these: octanol/water. The class given is physicochemical.
A short description of series [8]: Plasma protein binding in human. As to conditions: read-out: PPB (converted). The class given is ADME, cell-free.
Series [9] can be described thus: Clearance in dog at 0.5 mg/kg, po. The class given is ADME, organism-based, Canis lupus familiaris. On the set-up: dose 0.5 mg/kg, route oral. As to conditions: in vivo.
Series [10] in a line: Ratio of drug level in CSF to plasma in rat. The class given is ADME.
The nature of series [11]: Half life in dog at 0.5 mg/kg, po. The class given is ADME, organism-based, Canis lupus familiaris. Also on record: dose 0.5 mg/kg, route oral. As to conditions: in vivo.

Regarding `O=C(O)[C@@H]1C[C@H](Cc2cccc(OC(F)(F)F)c2)CN1`, the IC50 (in general, the point on the concentration scale where inhibition reaches its midpoint) in series [1] is 0.004 µM.
Take `O=C(O)[C@@H]1C[C@H](Cc2cc(F)ccc2F)CN1`: the 50% inhibitory concentration (IC50) in series [1] was found to be 0.01 µM.
Still for that read-out and setting: then `COc1cccc(C[C@@H]2CN[C@H](C(=O)O)C2)c1`, with 0.028 µM; and `O=C(O)[C@@H]1C[C@H](Cc2ccccc2F)CN1`, with 0.108 µM.
On to `O=C(O)[C@@H]1C[C@H](Cc2cccc(F)c2F)CN1`, for which, in series [1], the IC50 stood at 0.027 µM.
The same measure, in the same setting: then `O=C(O)[C@@H]1C[C@H](Cc2cc(Cl)ccc2Cl)CN1`, with 0.005 µM.
`O=C(O)[C@H]1C[C@@H](Cc2cccc(F)c2)CN1`: the IC50 in series [1] is over 10 µM.
As to `NCC1(CC(=O)O)CCCCC1` [GABAPENTIN], the IC50 in [2] amounted to 0.14 µM.
Consider `O=C(O)[C@@H]1C[C@H](Oc2cccc(Cl)c2)CN1`, for which the fraction unbound in series [3] is 0.19. Besides, in [4], the pKa (as a rule, the negative logarithm of the acid dissociation constant) amounted to 8.9. Further, the half-life – broadly, the time needed for the level to fall by half in the phase considered – in [5] is 0.4 h. Moreover, the half-maximal inhibitory concentration (IC50) in series [1] was 0.004 µM. The bioavailability (as a rule, dose-corrected exposure relative to a reference, in per cent) in [6] stood at 100%. Besides, the CL in the series filed under Rattus norvegicus was determined as 2.46 L/h/kg.
For the compound `O=C(O)[C@@H]1C[C@H](Cc2ccccc2)CN1`, the IC50 in series [1] is 0.272 µM.
On to `O=C(O)[C@@H]1C[C@H](OCc2ccc(Cl)cc2)CN1`, for which the fraction unbound in series [3] is 0.65. In addition, in [1], the IC50 was 0.048 µM. Moreover, in the series listed under Rattus norvegicus, the CL turned out to be 1.56 L/h/kg.
On to `O=C(O)[C@@H]1C[C@H](Cc2ccccc2Cl)CN1`, for which the fraction unbound in series [3] is 0.67. The half-life in series [5] is 0.5 h. The IC50 in series [1] was determined as 0.008 µM. Also, the logD (as a rule, lipophilicity at a set pH, counting ionised and neutral species) in series [7] came out at 0.6. In the series listed under Rattus norvegicus, the CL is 0.9 L/h/kg.
Turning to `CC(C)C[C@H](CN)CC(=O)O` [PREGABALIN], the half-maximal inhibitory concentration (IC50) in series [2] was 0.08 µM.
On to `O=C(O)[C@@H]1C[C@H](COc2cccc(F)c2)CN1`, for which the fraction unbound in series [3] is 0.91; in series [8], 0.32. This compound had a half-life in [5] of 1.4 h. Also, the IC50 in [1] was 0.025 µM. The compound also registered a logD in [7] of -0.3. Further, the CL in the series listed under Rattus norvegicus came to 0.42 L/h/kg.
In the case of `CCc1cccc(C[C@@H]2CN[C@H](C(=O)O)C2)c1`, the 50% inhibitory concentration (IC50) in [1] was determined as 0.027 µM.
On the same count and under the same terms, the figure for `O=C(O)[C@@H]1C[C@H](COc2cccc(Cl)c2)CN1` is 0.013 µM.
`Cl.O=C(O)[C@@H]1C[C@H](Cc2cccc(F)c2)CN1`: the values for the fraction unbound in series [3] and in series [8] were 0.82 and 0.73, respectively. Further, the pKa in series [4] amounted to 10.1. For the same compound, the CL/F – broadly, the apparent clearance, not corrected for the fraction that reaches the circulation – in [9] came out at 0.024 L/h/kg. The half-life in series [5] is 1.6 h; in [11], 26 h. The concentration for half-maximal inhibition (IC50) in series [1] was determined as 0.017 µM. Further, the concentration ratio (Kp) (as a rule, tissue or fluid exposure divided by exposure in the circulation) in series [10] is 0.004. The logD in series [7] amounted to 0.1. In [6], this compound had a bioavailability of 89%. The CL in the series listed under Rattus norvegicus was found to be 0.36 L/h/kg.
